# Data published in patent US9187429B2, “Phenyl-tetrahydroisoquinoline derivatives” (Hoffmann-La Roche Inc., priority 2012, dated 2015).
# Assays:
# [1] = target: T1, CYP11B2 (Homo sapiens (Human), UniProt P19099); settings: patients with primary aldosteronism, oral; cited from earlier work
# [2] = rat CKD model; FAD286 4 weeks of treatment, spironolactone 4 and 8 weeks; cited from earlier work
# [3] = target: human CYP11B1 (Homo sapiens (Human), UniProt P15538); assay: G-402 cellular enzyme assay, human CYP11B1 (cortisol release); format: cell-based; settings: G-402 cells expressing human CYP11B1, 1 μM Deoxycortisol
# Sequence of human CYP11B1 (P15538 25-503): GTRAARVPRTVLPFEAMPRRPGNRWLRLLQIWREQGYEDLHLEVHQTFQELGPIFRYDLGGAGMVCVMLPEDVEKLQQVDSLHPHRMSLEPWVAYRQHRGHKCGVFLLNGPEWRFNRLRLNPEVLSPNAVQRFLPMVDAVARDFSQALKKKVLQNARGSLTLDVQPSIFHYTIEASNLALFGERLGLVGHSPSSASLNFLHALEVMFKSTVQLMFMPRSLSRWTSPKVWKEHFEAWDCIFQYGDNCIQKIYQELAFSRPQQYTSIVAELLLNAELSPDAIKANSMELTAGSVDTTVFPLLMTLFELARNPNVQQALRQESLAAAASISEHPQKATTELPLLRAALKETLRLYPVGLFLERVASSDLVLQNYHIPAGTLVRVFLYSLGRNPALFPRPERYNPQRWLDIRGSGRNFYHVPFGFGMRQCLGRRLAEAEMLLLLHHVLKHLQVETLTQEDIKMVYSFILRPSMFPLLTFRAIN
# Summary of the method: (§1)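 G-402 cells stably transfected with human CYP11B2 or CYP11B1, dosed with inhibitor and 1 μM deoxycorticosterone (CYP11B2) or 1 μM deoxycortisol (CYP11B1). Aldosterone or cortisol in supernatant quantified by HTRF; EC50 from 4-parameter MMF fit of steroid level versus inhibitor concentration.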
# [4] = target: T1, CYP11B2; assay: G-402 cellular enzyme assay, human CYP11B2 (aldosterone release); format: cell-based; settings: G-402 cells expressing human CYP11B2, 1 μM Deoxycorticosterone
# Summary of the method: as §1
# T1 sequence (P19099 25-503): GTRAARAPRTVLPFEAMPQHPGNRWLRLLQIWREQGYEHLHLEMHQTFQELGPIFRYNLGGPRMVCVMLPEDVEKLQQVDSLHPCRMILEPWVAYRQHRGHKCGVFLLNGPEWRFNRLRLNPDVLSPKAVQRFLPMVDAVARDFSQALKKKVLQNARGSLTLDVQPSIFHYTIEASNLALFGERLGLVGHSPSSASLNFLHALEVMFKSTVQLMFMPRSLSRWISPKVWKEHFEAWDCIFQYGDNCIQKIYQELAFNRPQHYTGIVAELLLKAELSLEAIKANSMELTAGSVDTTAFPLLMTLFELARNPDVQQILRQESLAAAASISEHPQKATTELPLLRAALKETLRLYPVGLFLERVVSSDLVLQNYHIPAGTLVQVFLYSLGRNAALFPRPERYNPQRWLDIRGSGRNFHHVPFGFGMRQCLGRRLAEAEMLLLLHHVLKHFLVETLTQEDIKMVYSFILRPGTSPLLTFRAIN
EC50 [3] [nM],EC50 [4] [nM],SMILES,also measured
,,N#Cc1ccc([C@H]2CCc3cncn32)c(F)c1 [LCI699],blood pressure [1]: mildly decreased; circulating aldosterone levels [1]: significantly lower; hypokalemia [1]: corrected
,,CC(=O)S[C@@H]1CC2=CC(=O)CC[C@]2(C)[C@H]2CC[C@@]3(C)[C@@H](CC[C@@]34CCC(=O)O4)[C@H]12 [spironolactone],plasma aldosterone [2]: increased
,,N#Cc1ccc(C2CCCc3cncn32)cc1 (stereo not drawn) [FAD286],plasma aldosterone [2]: reduced
8,10,"COC1CCCc2c(-c3ccc(C#N)cc3)cncc21 (racemic) [Example 13, (rac)-4-(8-Methoxy-5,6,7,8-tetrahydroisoquinolin-4-yl)benzonitrile]",
628,19.6,"COC(=O)COC1CCc2c(-c3ccc(C(F)(F)F)cc3)cncc21 (racemic) [Example 98, (rac)-Methyl 2-(4-(4-(trifluoromethyl)phenyl)-6,7-dihydro-5H-cyclopenta[c]pyridin-7-yloxy)acetate]",
38300,3210,"CCC(=O)NC1CCc2c(-c3ccc(Cl)c(F)c3)cncc21 (single isomer, unassigned; (-)) [Example 56, (−)-(S or R)—N-(4-(4-Chloro-3-fluorophenyl)-6,7-dihydro-5H-cyclopenta[c]pyridin-7-yl)propionamide]",
1670,107,"OC1CCCc2c(-c3ccc(C(F)(F)F)cc3)cncc21 (single isomer, unassigned; (-)) [Example 105, (−)-(S or R)-4-(4-(Trifluoromethyl)phenyl)-5,6,7,8-tetrahydroisoquinolin-8-ol]",
3170,89,"C[C@@H](O)C(=O)NC1CCc2c(-c3ccc(C(F)(F)F)cc3)cncc21 (single isomer, unassigned; (+)) [Example 54, (+)-(R)-2-Hydroxy-N—((R or S)-4-(4-(trifluoromethyl)phenyl)-6,7-dihydro-5H-cyclopenta[c]pyridin-7-yl)propanamide]",
